According to PMC5515969, “Effects of 31 FDA approved small-molecule kinase inhibitors on isolated rat liver mitochondria” (Archives of Toxicology, 2016):
Structures can show the parent of a compound that is named as a salt. Where two headings read alike, the source gives them in different places.

Key:
[1] = tested on: isolated rat liver mitochondria; experiment: Mitochondrial oxygen consumption (glutamate/malate or succinate driven, state 4 and state 3); assay type: biochemical; settings: DMSO treated samples set as 1; on State 3 respiration driven by succinate at 10XCmax: key: 0 indicates that the drug had no effects (negative); on State 3 respiration driven by succinate at 1XCmax: key: 0 indicates that the drug had no effects (negative)
In short: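 Oxygen uptake on glutamate/malate or on succinate defined state 4; ADP added 3 min later gave state 3. Mitochondria isolated from rat liver by differential centrifugation, adjusted to 1 mg/ml and pretreated 5 min with inhibitor (0.1% DMSO final). Values relative to DMSO control, set to 1.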

RCC I = RCC I activity in submitochondrial particles; assay type: biochemical, rat; design: key to RCC I at 10XCmax / RCC I at 100XCmax / RCC I at 50XCmax / RCC I at 30XCmax / RCC I at 20XCmax: activity relative to DMSO-treated controls (control set as 1 = 100%); settings: 10XCmax; relative to DMSO treated samples
In short: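 Kinase inhibitors were preincubated 15 min with submitochondrial particles (1 mg/ml) before complex activities were measured. RCC I was the rotenone-sensitive portion (activity without minus with rotenone). RCC I/V was read at 340 nm and RCC II at 600 nm every 1 min for 6 min. RCC III and IV were read at 550 nm every 10 s for 2 min. Activities are normalized to DMSO controls set as 1.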

RCC II = biological target: T1, RCC II (Rattus norvegicus, UniProt P21913+Q641Z9+Q6PCT8+Q920L2); experiment: RCC II activity in submitochondrial particles; assay type: biochemical; design: key: activity relative to DMSO-treated controls (control set as 1 = 100%); settings: relative to DMSO treated samples
T1 construct: Submitochondrial particles were prepared by subjecting the intact mitochondria to three successive freeze–thaw cycles; from tissue; host or cells: rat liver mitochondria, used as submitochondrial particles
T1 sequence (Q920L2 35-656): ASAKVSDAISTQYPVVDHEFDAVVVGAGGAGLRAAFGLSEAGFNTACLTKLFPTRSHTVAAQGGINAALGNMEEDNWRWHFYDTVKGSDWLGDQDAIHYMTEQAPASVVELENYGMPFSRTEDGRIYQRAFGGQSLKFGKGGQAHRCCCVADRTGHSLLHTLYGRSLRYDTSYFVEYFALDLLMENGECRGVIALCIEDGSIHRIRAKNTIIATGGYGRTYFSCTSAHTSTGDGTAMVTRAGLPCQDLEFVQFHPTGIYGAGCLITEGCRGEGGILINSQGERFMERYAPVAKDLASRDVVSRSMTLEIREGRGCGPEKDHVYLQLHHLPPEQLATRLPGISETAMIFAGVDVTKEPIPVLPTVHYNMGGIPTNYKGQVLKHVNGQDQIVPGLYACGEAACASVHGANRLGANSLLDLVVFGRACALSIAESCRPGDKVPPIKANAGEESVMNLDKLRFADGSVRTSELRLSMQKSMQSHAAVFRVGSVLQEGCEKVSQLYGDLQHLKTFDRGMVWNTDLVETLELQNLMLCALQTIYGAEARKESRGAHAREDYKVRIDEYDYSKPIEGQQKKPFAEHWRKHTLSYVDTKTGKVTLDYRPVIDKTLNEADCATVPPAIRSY
T1 sequence (P21913 31-282): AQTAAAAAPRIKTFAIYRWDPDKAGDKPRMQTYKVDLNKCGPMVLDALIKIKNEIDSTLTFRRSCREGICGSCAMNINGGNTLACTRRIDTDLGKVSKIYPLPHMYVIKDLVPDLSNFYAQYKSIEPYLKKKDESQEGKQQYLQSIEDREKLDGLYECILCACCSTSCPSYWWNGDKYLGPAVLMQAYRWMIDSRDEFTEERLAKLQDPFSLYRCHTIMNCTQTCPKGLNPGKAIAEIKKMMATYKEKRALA
T1 sequence (Q641Z9 1-169): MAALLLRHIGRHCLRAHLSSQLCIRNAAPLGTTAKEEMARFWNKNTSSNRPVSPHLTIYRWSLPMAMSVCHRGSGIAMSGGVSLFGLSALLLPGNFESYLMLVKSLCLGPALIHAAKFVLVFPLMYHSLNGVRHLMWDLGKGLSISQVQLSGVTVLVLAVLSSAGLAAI
T1 sequence (Q6PCT8 57-159): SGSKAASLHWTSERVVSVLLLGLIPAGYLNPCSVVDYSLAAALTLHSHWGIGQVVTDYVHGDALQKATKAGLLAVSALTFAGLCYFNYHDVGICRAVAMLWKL
In short: (§1)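 Absorbance kinetics: A340 (RCC I, V) and A600 (RCC II) read each minute over 6 min, A550 (RCC III, IV) every 10 s over 2 min; RCC I taken as […]. Particles (1 mg/ml) pretreated 15 min with compound; DMSO-treated activity = 1.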

RCC V = RCC V activity in submitochondrial particles; assay type: biochemical, rat; settings: relative to DMSO treated samples; on RCC V at 5XCmax: key: 0 indicates that the drug had no effects (negative)
In short: as §1

[2] = tested on: isolated rat liver mitochondria; experiment: Mitochondrial inner membrane potential (MMP), Rhodamine 123; assay type: biochemical; settings: difference in signal between KI and DMSO treated samples at the end of experiments
Description: Fig. 3 KI effects on mitochondrial inner membrane potential (MMP). […] In a, c, data are means and standard derivations from three separate experiments. *p < 0.05 as compared to DMSO-treated samples at the end of experiments. In b, data are means of two independent experiments

[3] = tested on: isolated rat liver mitochondria; experiment: Mitochondrial swelling (absorbance at 535 nm); assay type: biochemical; settings: difference in signal between KI and DMSO treated samples at the end of experiments; on Swelling 5XCmax: key: 0 indicates that the drug had no effects (negative)
[4] = Solubility of drug in DMSO stock / reaction buffer at multiples of Cmax; assay type: physicochemical
Description: Supplement 204_2016_1918_MOESM3_ESM.xlsx, sheet "Sheet1" | column: 100 Cmax; 50 Cmax; note

[5] = tested on: isolated rat liver mitochondria; settings: positive control alamethicin treated samples
[6] = design: method as in product labeling; settings: ref product labeling, cited from earlier work
[7] = therapeutic maximal blood concentration, ref product labeling, cited from earlier work
[8] = cited from earlier work
[9] = tested on: isolated rat liver mitochondria; experiment: Mitochondrial ROS production (CM-H2DCFDA); settings: DMSO treated samples set as 1

## C#Cc1cccc(Nc2ncnc3cc(OCCOC)c(OCCOC)cc23)c1 [erlotinib hydrochloride]
[1]; 1XCmax
  State 3 respiration driven by glutamate/malate at 1XCmax: 0
  State 3 respiration driven by succinate at 1XCmax: 0
  State 4 respiration driven by glutamate/malate at 1XCmax: 0
  State 4 respiration driven by succinate at 1XCmax: 0
[1]; 2.5XCmax
  State 3 respiration driven by glutamate/malate at 2.5XCmax: 0
  State 3 respiration driven by succinate at 2.5XCmax: 0
  State 4 respiration driven by glutamate/malate at 2.5XCmax: 0
  State 4 respiration driven by succinate at 2.5XCmax: 0
[1]; 5XCmax
  State 3 respiration driven by glutamate/malate at 5XCmax: 0
  State 3 respiration driven by succinate at 5XCmax: 0
  State 4 respiration driven by glutamate/malate at 5XCmax: 0
  State 4 respiration driven by succinate at 5XCmax: 0
[1]; 10XCmax
  State 3 respiration driven by glutamate/malate at 10XCmax: 0
  State 3 respiration driven by succinate at 10XCmax: 0
  State 4 respiration driven by glutamate/malate at 10XCmax: 0
  State 4 respiration driven by succinate at 10XCmax: 0
RCC I
  RCC I at 10XCmax: 0
RCC II; 1.0XCmax
  RCC II at 1.0XCmax: 0
RCC II; 2.5XCmax
  RCC II at 2.5XCmax: 0
RCC II; 5XCmax
  RCC II at 5XCmax: 0
RCC II; 10XCmax
  RCC II at 10XCmax: 0
RCC V; 5XCmax
  RCC V at 5XCmax: 0
RCC V; 10XCmax
  RCC V at 10XCmax: 83.52±2.96
[2]; 1XCmax
  MMP measured by Rhodamine 123 at 1XCmax: 0
[2]; 2.5XCmax
  MMP measured by Rhodamine 123 at 2.5XCmax: 0
[2]; 5XCmax
  MMP measured by Rhodamine 123 at 5XCmax: 0
[2]; 10XCmax
  MMP measured by Rhodamine 123 at 10XCmax: 0
[3]; 1XCmax
  Swelling 1XCmax: 0
[3]; 2.5XCmax
  Swelling 2.5XCmax: 0
[3]; 5XCmax
  Swelling 5XCmax: 0
[3]; 10XCmax
  Swelling 10XCmax: 0
[4]; DMSO stock for 50 Cmax
  Solubility of stock for 50 Cmax: not soluble
[4]; DMSO stock for 100 Cmax
  Solubility of stock for 100 Cmax: not soluble
[5]; 1XCmax
  Cytochrome c release 1XCmax: 0
[5]; 2.5XCmax
  Cytochrome c release 2.5XCmax: 0
[5]; 5XCmax
  Cytochrome c release 5XCmax: 0
[5]; 10XCmax
  Cytochrome c release 10XCmax: 0
[6]; BBW: black box warning, W&P: Warnings and Precautions
  Labeling for cardiotoxicity: W&P: Myocardial Infarction/Ischemia
[6]
  Potential for cardiotoxicity (based on labeling): 1
[7]; read-out: Cmax at µM
  Cmax: 3.44 µM
[7]
  Cmax: 1480 ng/mL
[8]; 1 = DILI positive, 0 = negative, ref product labeling
  DILI potential (based on labeling): 1
[8]; in vivo
  Labeling for DILI: W&P: fatal DILI
[9]; 1XCmax
  ROS measured by CM-H2DCFDA at 1XCmax: 0
[9]; 2.5XCmax
  ROS measured by CM-H2DCFDA at 2.5XCmax: 0
[9]; 5XCmax
  ROS measured by CM-H2DCFDA at 5XCmax: 0
[9]; 10XCmax
  ROS measured by CM-H2DCFDA at 10XCmax: 0
